Reference: PMC9848300, “Discovery of novel enasidenib analogues targeting inhibition of mutant isocitrate dehydrogenase 2 as antileukaemic agents” (Journal of Enzyme Inhibition and Medicinal Chemistry, 2023)
Read-outs that look alike come from different tables or passages of the source.

Experiments:
EKVX = assay: NCI 60 antitumor screening (single dose / five doses); format: cell-based; details: Homo sapiens, read-out: Growth inhibition percentage (GI %)
CCRF-CEM = assay: as above; format: cell-based; details: Homo sapiens, read-out: Growth inhibition percentage (GI %)
SN 12C = assay: as above; format: cell-based; details: Homo sapiens, SN12C, read-out: Growth inhibition percentage (GI %)
SK-MEL-28 = assay: as above; format: cell-based; details: Homo sapiens
SNB-75 = assay: as above; format: cell-based; details: Homo sapiens
HCT-116 = assay: as above; format: cell-based; details: Homo sapiens
UO-31 = assay: as above; format: cell-based; details: Homo sapiens
K-562 = assay: as above; format: cell-based; details: Homo sapiens
UACC-62 = assay: as above; format: cell-based; details: Homo sapiens
MDA-MB-231/ATCC = assay: as above; format: cell-based; details: Homo sapiens
LOX IMVI = assay: as above; format: cell-based; details: Homo sapiens, read-out: Growth inhibition percentage (GI %)
SK-MEL-2 = assay: as above; format: cell-based; details: Homo sapiens
SK-MEL-5 = assay: as above; format: cell-based; details: Homo sapiens
A498 = assay: as above; format: cell-based; details: Homo sapiens
[1] = tested on: 60 human subpanel cancer cell lines; assay: NCI 60 antitumor screening, mean over the panel (single dose); format: cell-based; details: mean over 60 cancer cell lines, single dose 10 μM
How it was run: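 NCI-60 one-dose screen. Dose: 10 μM. Lines: 60 human tumour lines, nine tissue types. Output: GI% = 100 − G%.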

MALME-3M = assay: NCI 60 antitumor screening (single dose / five doses); format: cell-based; details: Homo sapiens, read-out: Growth inhibition percentage (GI %)
MDA-MB-468 = assay: as above; format: cell-based; details: Homo sapiens
SW-620 = assay: as above; format: cell-based, human; details: Homo sapiens
T-47D = assay: as above; format: cell-based; details: Homo sapiens, T47D, read-out: Growth inhibition percentage (GI %)
MOLT-4 = assay: as above; format: cell-based; details: Homo sapiens
IGROV1 = assay: as above; format: cell-based; details: Homo sapiens
SF-539 = assay: as above; format: cell-based; details: Homo sapiens
ACHN = assay: as above; format: cell-based; details: Homo sapiens, read-out: Growth inhibition percentage (GI %)
HCT-15 = assay: as above; format: cell-based; details: Homo sapiens
HT29 = assay: as above; format: cell-based, human; details: Homo sapiens
SF-295 = assay: as above; format: cell-based; details: Homo sapiens
NCI/ADR-RES = assay: as above; format: cell-based; details: Homo sapiens, read-out: Growth inhibition percentage (GI %)
COLO 205 = assay: as above; format: cell-based; details: Homo sapiens
HL-60(TB) = assay: as above; format: cell-based; details: Homo sapiens
[2] = EKVX (non-small cell lung cancer), single dose 10 μM
[3] = CCRF-CEM (leukaemia), single dose 10 μM
[4] = SN 12C (renal cancer), single dose 10 μM
[5] = SK-MEL-28 (melanoma), single dose 10 μM, read-out: Growth inhibition percentage (GI %)
[6] = SNB-75 (CNS cancer), single dose 10 μM, read-out: Growth inhibition percentage (GI %)
[7] = HCT-116 (colon cancer), single dose 10 μM, read-out: Growth inhibition percentage (GI %)
[8] = UO-31 (renal cancer), single dose 10 μM, read-out: Growth inhibition percentage (GI %)
[9] = K562, K-562 (leukaemia), single dose 10 μM, read-out: Growth inhibition percentage (GI %)
[10] = UACC-62 (melanoma), single dose 10 μM, read-out: Growth inhibition percentage (GI %)
[11] = MDA-MB-231/ATCC (breast cancer), single dose 10 μM, read-out: Growth inhibition percentage (GI %)
[12] = LOX IMVI (melanoma), single dose 10 μM
[13] = SK-MEL-2 (melanoma), single dose 10 μM, read-out: Growth inhibition percentage (GI %)
[14] = SK-MEL-5 (melanoma), single dose 10 μM, read-out: Growth inhibition percentage (GI %)
[15] = A498 (renal cancer), single dose 10 μM, read-out: Growth inhibition percentage (GI %)
[16] = MALME-3M (melanoma), single dose 10 μM
[17] = MDA-MB-468 (breast cancer), single dose 10 μM, read-out: Growth inhibition percentage (GI %)
[18] = SW-620 (colon cancer), single dose 10 μM, read-out: Growth inhibition percentage (GI %)
[19] = T-47D (breast cancer), single dose 10 μM
[20] = MOLT-4 (leukaemia), single dose 10 μM, read-out: Growth inhibition percentage (GI %)
[21] = IGROV-1, IGROV1 (ovarian cancer), single dose 10 μM, read-out: Growth inhibition percentage (GI %)
[22] = SF-539 (CNS cancer), single dose 10 μM, read-out: Growth inhibition percentage (GI %)
[23] = ACHN (renal cancer), single dose 10 μM
[24] = HCT-15 (colon cancer), single dose 10 μM, read-out: Growth inhibition percentage (GI %)
[25] = HT-29, HT29 (colon cancer), single dose 10 μM, read-out: Growth inhibition percentage (GI %)
[26] = SF-295 (CNS cancer), single dose 10 μM, read-out: Growth inhibition percentage (GI %)
[27] = NCI/ADR-RES (ovarian cancer), single dose 10 μM
[28] = COLO 205 (colon cancer), single dose 10 μM, read-out: Growth inhibition percentage (GI %)
[29] = HL-60(TB) (leukaemia), single dose 10 μM, read-out: Growth inhibition percentage (GI %)

O=[N+]([O-])c1cc(/C=N/Nc2nc(N/N=C/c3ccc(Cl)c([N+](=O)[O-])c3)nc(N3CCCCC3)n2)ccc1Cl [compound 7i, 2,4-Bis[(E)-2-[(4-Chloro-3-nitrophenyl)methylidene]hydrazin-1-yl]-6-(piperidin-1-yl)-1,3,5-triazine]
inhibition at 10 µM (EKVX; EKVX): 22% | inhibition at 10 µM (CCRF-CEM; CCRF-CEM): 38.7% | inhibition at 10 µM (SN 12C): 27.7% | inhibition at 10 µM (SK-MEL-28; SK-MEL-28, read-out: Growth inhibition percentage (GI %)): 22.2% | inhibition at 10 µM (SNB-75; SNB-75, read-out: Growth inhibition percentage (GI %)): -36.1% | inhibition at 10 µM (HCT-116; HCT-116, read-out: Growth inhibition percentage (GI %)): 78% | inhibition at 10 µM (UO-31; UO-31, read-out: Growth inhibition percentage (GI %)): 52.5% | inhibition at 10 µM (K-562; K562, read-out: Growth inhibition percentage (GI %)): 68.3% | inhibition at 10 µM (UACC-62; UACC-62, read-out: Growth inhibition percentage (GI %)): 34% | inhibition at 10 µM (MDA-MB-231/ATCC; MDA-MB-231, read-out: Growth inhibition percentage (GI %)): 51.7% | inhibition at 10 µM (LOX IMVI; LOX IMVI): 34% | inhibition at 10 µM (SK-MEL-2; SK-MEL-2, read-out: Growth inhibition percentage (GI %)): 37.8% | inhibition at 10 µM (SK-MEL-5; SK-MEL-5, read-out: Growth inhibition percentage (GI %)): 48.9% | inhibition at 10 µM (A498; A498, read-out: Growth inhibition percentage (GI %)): -8.06% | Mean GI % [1]: 37.38% | inhibition at 10 µM (MALME-3M; Malme-3M): -1.47% | inhibition at 10 µM (MDA-MB-468; MDA-MB-468, read-out: Growth inhibition percentage (GI %)): 31.2% | inhibition at 10 µM (SW-620; SW-620, read-out: Growth inhibition percentage (GI %)): 36.3% | inhibition at 10 µM (T-47D): 51.8% | inhibition at 10 µM (MOLT-4; MOLT-4, read-out: Growth inhibition percentage (GI %)): 57.7% | inhibition at 10 µM (IGROV1; IGROV-1, read-out: Growth inhibition percentage (GI %)): 47.2% | inhibition at 10 µM (SF-539; SF-539, read-out: Growth inhibition percentage (GI %)): 63.7% | inhibition at 10 µM (ACHN; ACHN): 64.8% | inhibition at 10 µM (HCT-15; HCT-15, read-out: Growth inhibition percentage (GI %)): 50.3% | inhibition at 10 µM (HT29; HT-29, read-out: Growth inhibition percentage (GI %)): 92.6% | inhibition at 10 µM (SF-295; SF-295, read-out: Growth inhibition percentage (GI %)): 6.78% | inhibition at 10 µM (NCI/ADR-RES; NCI/ADR-RES): 69.8% | inhibition at 10 µM (COLO 205; COLO 205, read-out: Growth inhibition percentage (GI %)): -0.27% | inhibition at 10 µM (HL-60(TB); HL-60, read-out: Growth inhibition percentage (GI %)): 58.1%

Oc1ccc(/C=N/Nc2nc(N/N=C/c3ccc(O)c(O)c3)nc(N3CCCCC3)n2)cc1O [compound 7j, 4-[(1e)-(2-{4-[(E)-2-[(3,4-Dihydroxyphenyl)methylidene]hydrazin-1-yl]-6-(piperidin-1-yl)-1,3,5-triazin-2-yl}hydrazin-1-ylidene)methyl]benzene-1,2-diol]
inhibition at 10 µM (EKVX; [2]): 1.58% | inhibition at 10 µM (CCRF-CEM; [3]): 9.46% | inhibition at 10 µM (SN 12C; [4]): 4.32% | inhibition at 10 µM (SK-MEL-28; [5]): -7.04% | inhibition at 10 µM (SNB-75; [6]): -4% | inhibition at 10 µM (HCT-116; [7]): 23.7% | inhibition at 10 µM (UO-31; [8]): 15.3% | inhibition at 10 µM (K-562; [9]): 6.41% | inhibition at 10 µM (UACC-62; [10]): 3.56% | inhibition at 10 µM (MDA-MB-231/ATCC; [11]): 12.8% | inhibition at 10 µM (LOX IMVI; [12]): 6.65% | inhibition at 10 µM (SK-MEL-2; [13]): 9.62% | inhibition at 10 µM (SK-MEL-5; [14]): 4.85% | inhibition at 10 µM (A498; [15]): -2.84% | Mean GI % [1]: 1.89% | inhibition at 10 µM (MALME-3M; [16]): 6.88% | inhibition at 10 µM (MDA-MB-468; [17]): 10.2% | inhibition at 10 µM (SW-620; [18]): 6.35% | inhibition at 10 µM (T-47D; [19]): 16.9% | inhibition at 10 µM (MOLT-4; [20]): 6.3% | inhibition at 10 µM (IGROV1; [21]): 5.35% | inhibition at 10 µM (SF-539; [22]): 1.16% | inhibition at 10 µM (ACHN; [23]): 6.6% | inhibition at 10 µM (HCT-15; [24]): 16.1% | inhibition at 10 µM (HT29; [25]): -13.4% | inhibition at 10 µM (SF-295; [26]): 0.36% | inhibition at 10 µM (NCI/ADR-RES; [27]): -3.16% | inhibition at 10 µM (COLO 205; [28]): -6.39% | inhibition at 10 µM (HL-60(TB); [29]): -1.96%

C(=N\Nc1nc(N/N=C/c2ccc3c(c2)OCO3)nc(N2CCCCC2)n1)/c1ccc2c(c1)OCO2 [compound 7k, 2,4-Bis[(E)-2-(2H-1,3-Benzodioxol-5-ylmethylidene)hydrazin-1-yl]-6-(piperidin-1-yl)-1,3,5-triazine]
inhibition at 10 µM (EKVX; [2]): 6.27% | inhibition at 10 µM (CCRF-CEM; [3]): 79.6% | inhibition at 10 µM (SN 12C; [4]): 20.3% | inhibition at 10 µM (SK-MEL-28; [5]): -8.67% | inhibition at 10 µM (SNB-75; [6]): -13.1% | inhibition at 10 µM (HCT-116; [7]): 52.1% | inhibition at 10 µM (UO-31; [8]): 25.6% | inhibition at 10 µM (K-562; [9]): 58.9% | inhibition at 10 µM (UACC-62; [10]): -2.37% | inhibition at 10 µM (MDA-MB-231/ATCC; [11]): 9.3% | inhibition at 10 µM (LOX IMVI; [12]): 52.1% | inhibition at 10 µM (SK-MEL-2; [13]): -2.84% | inhibition at 10 µM (SK-MEL-5; [14]): 3.15% | inhibition at 10 µM (A498; [15]): 48.3% | Mean GI % [1]: 14.53% | inhibition at 10 µM (MALME-3M; [16]): -20.2% | inhibition at 10 µM (MDA-MB-468; [17]): 18.4% | inhibition at 10 µM (SW-620; [18]): 17.6% | inhibition at 10 µM (T-47D; [19]): 12.8% | inhibition at 10 µM (MOLT-4; [20]): 43.7% | inhibition at 10 µM (IGROV1; [21]): 23.1% | inhibition at 10 µM (SF-539; [22]): 12.4% | inhibition at 10 µM (ACHN; [23]): 5.09% | inhibition at 10 µM (HCT-15; [24]): 66.2% | inhibition at 10 µM (HT29; [25]): 61.8% | inhibition at 10 µM (SF-295; [26]): 22.2% | inhibition at 10 µM (NCI/ADR-RES; [27]): 14.5% | inhibition at 10 µM (COLO 205; [28]): 14.1% | inhibition at 10 µM (HL-60(TB); [29]): 39.6%
